From US11524046B2, “Biofilm prevention, disruption and treatment with bacteriophage lysin” (priority 2012, dated 2022)
Values after ≈ are worked out from the molar mass of the structure shown. Read-outs that look alike come from different tables or passages of the source. Marks after values point to notes of the source that are not given here.

Key:
S. aureus strains = experiment: PlySs2 and antibiotic MIC, broth microdilution, 80% growth inhibition (CLSI M07-A9); type: cell-based; conditions: for MIC90: Staphylococcus aureus
biofilms of BAA-42 MRSA = experiment: Biofilm eradication in 24-well plates, crystal violet staining; type: cell-based, S. aureus; conditions: for change in biofilm, visually: 1000 ug/ml (1000×MIC), 4 hours or 6 hours; for biofilm clearance: 1000×MIC, 24 hours
S. aureus biofilms = conditions: cited from earlier work; for effect on the established S. aureus biofilms: high concentrations: oxacillin 400, vancomycin 800, clindamycin 800 (printed ag/ml, tag/ml), 24 h
[1] = test system: MRSA biofilms grown on catheters (strain ATCC BAA-42); experiment: Catheter biofilm residual CFU, BacTiter-Glo luciferase estimate
[2] = test system: MRSA biofilms grown on catheters (strain ATCC BAA-42); experiment: Catheter biofilm eradication in vitro, methylene blue staining; conditions: 1000×MIC, 24 hours
[3] = test system: ATCC BAA-42 MRSA biofilms; experiment: ClyS activity on biofilm in polystyrene plates, crystal violet staining; type: cell-based, S. aureus; conditions: 24 hours
[4] = test system: methicillin resistant S. aureus MRSA strain ATCC BAA-42; experiment: MIC by broth microdilution (CLSI M07-A9) against strain ATCC BAA-42; type: cell-based; conditions: ATCC BAA-42

Molecule: CC(=O)NC[C@H]1CN(c2ccc(N3CCOCC3)c(F)c2)C(=O)O1 [Linezolid, linezolid]
- MIC50/90 (S. aureus strains; DRSA (n = 8)): 2
- MIC50/90 [uM] (S. aureus strains; DRSA (n = 8)): 5.7 µM (≈ 1.92 µg/mL)
- MIC50/90 (S. aureus strains; LRSA (n = 5)): >64
- MIC50/90 [uM] (S. aureus strains; LRSA (n = 5)): >183 µM
- MIC50/90 (S. aureus strains; MRSA (n = 45)): 2
- MIC50/90 [uM] (S. aureus strains; MRSA (n = 45)): 5.7 µM (≈ 1.92 µg/mL)
- MIC50/90 (S. aureus strains; MSSA (n-28)): 2
- MIC50/90 [uM] (S. aureus strains; MSSA (n-28)): 5.7 µM (≈ 1.92 µg/mL)
- MIC50/90 (S. aureus strains; VISA (n = 10)): 2
- MIC50/90 [uM] (S. aureus strains; VISA (n = 10)): 5.7 µM (≈ 1.92 µg/mL)
- MIC50/90 (S. aureus strains; VRSA (n = 14)): 2
- MIC50/90 [uM] (S. aureus strains; VRSA (n = 14)): 5.7 µM (≈ 1.92 µg/mL)
- change in biofilm, visually (biofilms of BAA-42 MRSA): No change
- biofilm clearance (biofilms of BAA-42 MRSA): no biofilm clearance

Molecule: Lysostaphin: gene product of Staphylococcus simulans degrading the polyglycine crosslinks of the S. aureus cell wall
- effect on S. aureus biofilms in vitro on plastic and glass surfaces (S. aureus biofilms; lysostaphin-sensitive S. aureus): disrupted the extracellular matrix

Molecule: CCCCCCCCCC(=O)N[C@@H](Cc1c[nH]c2ccccc12)C(=O)N[C@H](CC(N)=O)C(=O)N[C@@H](CC(=O)O)C(=O)N[C@@H]1C(=O)NCC(=O)N[C@@H](CCCN)C(=O)N[C@@H](CC(=O)O)C(=O)N[C@H](C)C(=O)N[C@@H](CC(=O)O)C(=O)NCC(=O)N[C@H](CO)C(=O)N[C@@H]([C@H](C)CC(=O)O)C(=O)N[C@@H](CC(=O)c2ccccc2N)C(=O)O[C@@H]1C [Daptomycin, daptomycin]
- CFU reduction ([1]; 1×MIC, 24 hours): no CFU reduction
- CFUs remaining in catheter biofilm ([1]; 1000× MIC, 24 hours, from 100 million): 1 million
- CFU reduction ([1]; 1000×MIC, 24 hours): two log reduction
- removal of biofilm bacteria ([1]; up to concentrations of 5000×MIC): completely ineffective
- biofilm clearance from the catheter [2]: did not remove significant biofilm
- MIC90 (S. aureus strains; DRSA (n = 8), read-out: MIC90): 9.9 µM (≈ 16 µg/mL)
- MIC90 (S. aureus strains; LRSA (n = 5), read-out: MIC90): 0.6 µM (≈ 0.972 µg/mL)
- MIC90 (S. aureus strains; MRSA, MRSA (n = 45), read-out: MIC90): 0.6 µM (≈ 0.972 µg/mL)
- MIC90 (S. aureus strains; MSSA, MSSA (n-28), read-out: MIC90): 0.6 µM (≈ 0.972 µg/mL)
- MIC90 (S. aureus strains; VISA, VISA (n = 10), read-out: MIC90): 4.9 µM (≈ 7.94 µg/mL)
- MIC90 (S. aureus strains; VRSA, VRSA (n = 14), read-out: MIC90): 0.6 µM (≈ 0.972 µg/mL)
- change in biofilm, visually (biofilms of BAA-42 MRSA): No change
- biofilm clearance (biofilms of BAA-42 MRSA): no biofilm clearance
- biofilm dissolution (biofilms of BAA-42 MRSA; concentrations up to 10×MIC, up to 24 hours): no dissolution

Molecule: CN[C@H](CC(C)C)C(=O)N[C@H]1C(=O)N[C@@H](CC(N)=O)C(=O)N[C@H]2C(=O)N[C@H]3C(=O)N[C@H](C(=O)N[C@H](C(=O)O)c4cc(O)cc(O)c4-c4cc3ccc4O)[C@H](O)c3ccc(c(Cl)c3)Oc3cc2cc(c3O[C@@H]2O[C@H](CO)[C@@H](O)[C@H](O)[C@H]2O[C@H]2C[C@](C)(N)[C@H](O)[C@H](C)O2)Oc2ccc(cc2Cl)[C@H]1O [Vancomycin, vancomycin]
- effect on the established S. aureus biofilms (S. aureus biofilms): no effect
- MIC90 (S. aureus strains): 0.7 µM (≈ 1.01 µg/mL)
- MIC90 (S. aureus strains; MRSA): 0.7 µM (≈ 1.01 µg/mL)
- MIC90 (S. aureus strains; MSSA): 0.7 µM (≈ 1.01 µg/mL)
- MIC90 (S. aureus strains; VISA): 2.7 µM (≈ 3.91 µg/mL)
- MIC90 (S. aureus strains; VRSA): > 10.6 µM
- change in biofilm, visually (biofilms of BAA-42 MRSA): No change
- biofilm clearance (biofilms of BAA-42 MRSA): no biofilm clearance

Molecule: Cc1onc(-c2ccccc2)c1C(=O)N[C@@H]1C(=O)N2[C@@H]1SC(C)(C)[C@@H]2C(=O)O [Oxacillin, oxacillin]
- effect on the established S. aureus biofilms (S. aureus biofilms): no effect
- MIC50/90 (S. aureus strains; MRSA (n = 45)): >4*
- MIC50/90 [uM] (S. aureus strains; MRSA (n = 45)): >10.0 µM

B1: ClyS: chimeric lysin with activity against Staphylococci, detailed in WO 2010/002959; SEQ ID NO: 5 (protein, listed as Staphylococcus aureus)
chain: METLKQAESYIKSKVNTGTDFDGLYGYQCMDLAVDYIYHVTDGKIRMWGNAKDAINNSFGGTATVYKNYPAFRPKYGDVVVWTTGNFATYGHIAIVTNPDPYGDLQYVTVLEQNWNGNGIYKTELATIRTHDYTGITHFIRPNFATESSVKKKDTKKKPKPSNRDGLNKDKIVYDRTNINYNMVLQGKSASKITVGSKAPYNLKWSKGAYFNAKIDGLGATSATRYGDNRTNYRFDVGQAVYAPGTLIYVFEIIDGWCRIYWNNHNEWIWHERLIVKEVF
- biofilm dispersal ([3]; 0.032 μg/ml): somewhat
- biofilm dispersal ([3]; 0.32 μg/ml): Reduction in stained biofilm
- biofilm dispersal ([3]; 3.2 μg/ml (0.1× MIC)): effectively disperses
- biofilm dispersal ([3]; 32 μg/ml (1×MIC)): effectively disperses
- MIC of the ClyS lysin [4]: 32 µg/mL
